Experiment [1] relates to Human neuroblastoma cells (SK-N-SH). Description: Intracellular NAD+ in human neuroblastoma cells treated with H2O2, iron and ascorbic acid. The class given is cell-based. The following applies: for depletion of intracellular NAD+ levels: pre-treatment with 2, 20 and 200 μM, 100 μM H2O2.
In experiment [2] the test system is primary human foetal astrocytes. Description: Intracellular NAD+ levels in cultured human foetal astrocytes (NAD(H) microcycling assay). The following applies: for reversal of NAD+ depletion compared to 1-MT treatment alone: supplementation together with 1-MT; for abrogation of resveratrol-induced increase of intracellular NAD+ by de novo pathway inhibitor: inhibitor 1 mM + resveratrol 100 μM. In kind it is cell-based.

Another experiment concerns PARP-1. The following applies: exposure to 10-100 μM H2O2 for 20 min.
The subject of experiment [3] is primary human foetal astrocytes. The following applies: exposure to 10-100 μM H2O2 for 20 min.
For experiment [4] the test system is unchanged. The experiment is described as follows: H2O2-mediated intracellular NAD+ depletion in human foetal astrocytes. In kind it is cell-based. The following applies: for intracellular NAD+ after oxidative (H2O2) insult: 24 hour pre-treatment (Melatonin 5 μM, Clioquinol 10 μM, resveratrol 100 μM), then 100 μM H2O2 15 min.
In experiment [5] the test system is human primary Keratinocytes. The experiment is described as follows: Residual DNA damage (dsDNA breaks) after UVB, Keratinocytes. In kind it is cell-based. The following applies: for amount of dsDNA breaks: EC100 or EC100 equivalent combinations; for EC100: mono therapy, DNA repair.
Experiment [6] relates to human primary Fibroblasts. The experiment is described as follows: Residual DNA damage (dsDNA breaks) after UVB, Fibroblasts. In kind it is cell-based. The following applies: for amount of dsDNA breaks: EC100 or EC100 equivalent combinations; for EC100: mono therapy, DNA repair.
Experiment [7] concerns human primary Keratinocytes. Description: Intracellular NAD 24 hr after UVB exposure in human skin cells. The following applies: single therapy 24 hrs after 15 min UVB; NAD levels / LDH activity; N=3. In kind it is cell-based. The procedure: Human skin cells (keratinocytes) were grown at a density of 5×10^6 in PERMANOX® chamber-slides (NUNC) for 2 weeks. This method is commonly used in the industry and is well known to those skilled in the art. Accordingly, there is no need to detail the method utilised in this specification.
Cells were either left unexposed or exposed to 15 min UVB (˜200 mJcm^−2).
Cells were left to incubate for 24 hrs before analysis of intracellular NAD (FIG. 19a-d to FIG. 21) and extracellular LDH (FIG. 21). FIGS. 19a-d show the intracellular NAD concentrations+/−UV exposure, +/−supplementation. FIGS. 19e-h show supernatant LDH activity+/−UVE exposure, +/−supplementation.

Experiment [8] deals with human recombinant NMNAT (hr-NMNAT1) (Homo sapiens, UniProt Q9HAN9). The following applies: resveratrol 50, 100 and 200 μM.
Sequence of human recombinant NMNAT (hr-NMNAT1) (Q9HAN9 whole entry): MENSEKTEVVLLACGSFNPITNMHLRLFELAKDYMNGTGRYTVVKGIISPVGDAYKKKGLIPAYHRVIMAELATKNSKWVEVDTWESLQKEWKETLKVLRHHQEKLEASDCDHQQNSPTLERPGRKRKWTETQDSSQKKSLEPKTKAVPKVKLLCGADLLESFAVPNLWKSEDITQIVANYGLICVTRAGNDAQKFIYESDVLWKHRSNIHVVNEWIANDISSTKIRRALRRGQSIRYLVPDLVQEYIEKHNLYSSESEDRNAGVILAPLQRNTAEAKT
In experiment [9] the test system is nicotinamide mononucleotide adenylyl transferase (NMNAT). Description: NMNAT activity in whole cell homogenates of human brain astrocytes. The class given is biochemical.

Take Vitamin E: the “depletion of intracellular NAD+ levels” value in experiment [1] is given as “inhibited”.

As to `O=C(O)c1cccnc1` [nicotinic acid, Nicotinic acid], the “reversal of NAD+ depletion compared to 1-MT treatment alone” value in experiment [2] (24 h) is given as “partially reversed”.

Consider `OO` [H2O2, hydrogen peroxide], for which the PARP-1 activity result in the experiment with PARP-1 is on record as “significantly increased”. Besides, in [3], the “LDH activity (a measure of cell death)” value is on record as “significantly increased”. Besides, the “Intracellular NAD+” value in [4] (exposure to 10-100 μM H2O2 for 20 min) is listed as “significantly decreased”.

Consider `O=C(O)c1ccccc1C(=O)O` [PA], for which the “abrogation of resveratrol-induced increase of intracellular NAD+ by de novo pathway inhibitor” value in experiment [2] (24 hour) is recorded as “Neither inhibitor was able to abrogate the resveratrol effect”.

For `Oc1c(I)cc(Cl)c2cccnc12` [Clioquinol], the “amount of dsDNA breaks” value in [5] (24 hr after UVB exposure) and in [6] (24 hr after UVB exposure) was “significantly reduced” throughout. The EC100 in experiment [5] and in experiment [6] was 0.1 µM throughout. Moreover, in experiment [7], the “Minimum effective concentrations (MEC)” value was found to be 0.1 µM. Also, in experiment [1] (Clioquinol 1 μM-100 μM, dose dependant, 100 μM H2O2, 10 μM iron, 10 μM ascorbic acid), the “.OH-induced NAD+ depletion” value is on record as “effectively reduced”. The “intracellular NAD+ after oxidative (H2O2) insult” value in [4] is reported as “significantly reduced NAD^+ depletion”.

For `O=c1c(O)c(-c2ccc(O)c(O)c2)oc2cc(O)cc(O)c12` [Quercetin], in [4] (quercetin (50 μM) overnight, then 10-100 μM H2O2 for 20 min), the “NAD+ levels after H2O2 exposure” value was “significantly preserved”.

Take `COc1ccc2[nH]cc(CCNC(C)=O)c2c1` [Melatonin]: the “reduction in damaged DNA” value is recorded as approximately 30% in experiment [5] (24 hr after UVB exposure) and approximately 40% in [6] (24 hr after UVB exposure). Also, the “amount of dsDNA breaks” value in [5] (24 hr after UVB exposure) and in [6] (24 hr after UVB exposure) was “significantly reduced” in each case. In addition, the EC100 in [5] and in [6] was 100 µM each time. Further, in experiment [1], the “depletion of intracellular NAD+ levels” value is “inhibited”. The “intracellular NAD+ after oxidative (H2O2) insult” value in [4] is on record as “significantly reduced NAD^+ depletion”.

With `Cn1cc(C[C@H](N)C(=O)O)c2ccccc21` [1-MT, 1-methyl tryptophan], in [2] (1-MT 1 mM, 24 h), the “intracellular NAD+ levels” value is reported as “significant decrease”. In addition, the “abrogation of resveratrol-induced increase of intracellular NAD+ by de novo pathway inhibitor” value in experiment [2] (24 hour) is on record as “Neither inhibitor was able to abrogate the resveratrol effect”.

Turning to `O=C(OC[C@H]1O[C@@H](OC(=O)c2cc(O)c(O)c(OC(=O)c3cc(O)c(O)c(O)c3)c2)[C@H](OC(=O)c2cc(O)c(O)c(OC(=O)c3cc(O)c(O)c(O)c3)c2)[C@@H](OC(=O)c2cc(O)c(O)c(OC(=O)c3cc(O)c(O)c(O)c3)c2)[C@@H]1OC(=O)c1cc(O)c(O)c(OC(=O)c2cc(O)c(O)c(O)c2)c1)c1cc(O)c(O)c(OC(=O)c2cc(O)c(O)c(O)c2)c1` [tannic acid], the “NAD+ levels, tannic acid alone” value in experiment [2] (100 μM, 24 hour incubation) is given as “did not significantly reduce”. For the same molecule, the “effect of resveratrol on intracellular NAD+ levels in presence of tannic acid” value in experiment [2] (tannic acid 100 μM + resveratrol 100 μM, 24 hours) is recorded as “completely abrogated”.

In the case of `N[C@@H](Cc1c[nH]c2ccccc12)C(=O)O` [L-tryptophan], the “reversal of NAD+ depletion compared to 1-MT treatment alone” value in experiment [2] (24 h) was “partially reversed”.

Regarding `Oc1ccc(/C=C/c2cc(O)cc(O)c2)cc1` [Resveratrol, 3,5,4′-trihydroxystilbene], the “amount of dsDNA breaks” value in experiment [5] (24 hr after UVB exposure) and in [6] (24 hr after UVB exposure) was “significantly reduced” in each case. Further, the EC100 in experiment [5] and in experiment [6] was 100 µM in each case. Further, in experiment [7], the “Minimum effective concentrations (MEC)” value amounted to 50 µM. Further, in [8], the “decrease of Km” value is on record as “approximately 3 times”. The “increase of NMNAT activity compared to control” value in [9] (200 μM resveratrol, whole cell homogenates) was found to be 67%. Also, the “increase of NMNAT activity in the whole cell extract” value in experiment [9] (presence of resveratrol (FIG. 16)) is on record as “approximately 70%”. Further, the “intracellular NAD+ after oxidative (H2O2) insult” value in experiment [4] is recorded as “did not show a significant change”. Besides, the “apparent antioxidant activity (H2O2-mediated NAD+ depletion)” value in [4] (resveratrol 100 μM 24 hour, then H2O2 20 minutes) is on record as “small reduction in NAD^+ depletion”. Besides, the “intracellular NAD+ versus control levels” value in [2] (resveratrol 100 μM, 24 hour) is given as “significantly increased”. Also, in experiment [2] (resveratrol 100 μM, 24 hour, cells not subject to oxidative stress), the “increase in intracellular NAD+ concentration” value is “approximately 75%”.

Take `NC(=O)c1ccccn1` [Picolinamide]: the “amount of dsDNA breaks” value in [5] (24 hr after UVB exposure) and in experiment [6] (24 hr after UVB exposure) was “significantly reduced” each time. Besides, the EC100 in experiment [5] and in experiment [6] was 100 µM throughout.
